Experimental data published in US10632125B2, “MTH1 inhibitors for treatment of inflammatory and autoimmune conditions” (THOMAS HELLEDAYS STIFTELSE FÖR MEDICINSK FORSKNING, priority 2014, dated 2020).

Target: MTH1 (Homo sapiens, UniProt P36639)
Assay: MTH1 enzymatic assay (malachite green, coupled to pyrophosphatase)
Type: biochemical
Conditions: dGTP 100 μM, MTH1 6 nM; 96- or 384-well format; read-out: IC50

Compound | IC50 [nM]
COc1ccc2c(CCNc3cc(-c4cccc(C)c4C)nc(N)n3)c[nH]c2c1 [Example 523, 6-(2,3-dimethylphenyl)-4-N-[2-(6-methoxy-1H-indol-3-yl)ethyl]pyrimidine-2,4-diamine] | < 200
CC1CC1Nc1cc(-c2cccc(Cl)c2Cl)nc(N)n1 (stereo not shown) [Example 524, 6-(2,3-dichlorophenyl)-4-N-(2-methylcyclopropyl)pyrimidine-2,4-diamine] | < 200
Cc1cccc(-c2cc(NCCNc3ccc(-c4nnn[nH]4)cc3)nc(N)n2)c1C [Example 543, 6-(2,3-dimethylphenyl)-4-N-(2-{[4-(1H-1,2,3,4-tetrazol-5-yl)phenyl]amino}ethyl)pyrimidine-2,4-diamine] | < 200
COc1ccc(NCCNc2cc(-c3cccc(C)c3C)nc(N)n2)cc1S(=O)(=O)O [Example 545, 5-[(2-{[2-amino-6-(2,3-dimethylphenyl)pyrimidin-4-yl]amino}ethyl)amino]-2-methoxybenzene-1-sulfonic Acid] | < 200
Nc1nc(NCCc2ccc(S(N)(=O)=O)cc2)cc(C2=CCN(S(=O)(=O)C3CC3)CC2)n1 [Example 555, 4-[2-({2-amino-6-[1-(cyclopropanesulfonyl)-1,2,3,6-tetrahydropyridin-4-yl]pyrimidin-4-yl}amino)ethyl]benzene-1-sulfonamide] | < 200
Cc1cccc(-c2cc(NCCNc3cc(-c4cccc(C)c4C)nc(N)n3)nc(N)n2)c1C [Example 561, 4-N-(2-{[2-amino-6-(2,3-dimethylphenyl)pyrimidin-4-yl]amino}ethyl)-6-(2,3-dimethylphenyl)pyrimidine-2,4-diamine] | < 200
Cc1c(Cl)cccc1-c1cc(NC2CC2C)nc(N)n1 (stereo not shown) [Example 581, 6-(3-chloro-2-methylphenyl)-4-N-(2-methylcyclopropyl)pyrimidine-2,4-diamine] | < 200
Cc1cccc(-c2cc(NC3CNC3)nc(N)n2)c1C [Example 589, 4-N-(azetidin-3-yl)-6-(2,3-dimethylphenyl)pyrimidine-2,4-diamine] | 2000 to 10000
Cc1c(Cl)cccc1-c1cc(NCCc2ccc(NC(=O)C3CC3)cc2)nc(N)n1 [Example 597, N-[4-(2-{[2-amino-6-(3-chloro-2-methylphenyl)pyrimidin-4-yl]amino}ethyl)phenyl]cyclopropanecarboxamide] | < 200
Cc1cccc(-c2cc(NCCc3cccs3)nc(N)n2)c1C [Example 598, 6-(2,3-dimethylphenyl)-4-N-[2-(thiophen-2-yl)ethyl]pyrimidine-2,4-diamine] | < 200
Cc1c(Cl)cccc1-c1cc(NCCc2ccc(Cl)c(Cl)c2)nc(N)n1 [Example 599, 6-(3-chloro-2-methylphenyl)-4-N-[2-(3,4-dichlorophenyl)ethyl]pyrimidine-2,4-diamine] | < 200
Cc1c(Cl)cccc1-c1cc(NCCc2ccc(Cl)cc2Cl)nc(N)n1 [Example 600, 6-(3-chloro-2-methylphenyl)-4-N-[2-(2,4-dichlorophenyl)ethyl]pyrimidine-2,4-diamine] | < 200
Cc1c(Cl)cccc1-c1cc(NCCc2ccc(C#N)cc2)nc(N)n1 [Example 625, 4-(2-{[2-amino-6-(3-chloro-2-methylphenyl)pyrimidin-4-yl]amino}ethyl)benzonitrile] | < 200
CNc1cc(C#Cc2ccccc2)nc(N)n1 [Example 626, 4-N-methyl-6-(2-phenylethynyl)pyrimidine-2,4-diamine] | < 200
Cc1c(Cl)cccc1-c1cc(NCCNc2ccc3c(=O)[nH]cnc3c2)nc(N)n1 [Example 632, 7-[2-[[2-amino-6-(3-chloro-2-methyl-phenyl)pyrimidin-4-yl]amino]ethylamino]-3H-quinazolin-4-one] | < 200
Cc1c(Cl)cccc1-c1cc(NCCc2ccc(N)cc2)nc(N)n1 [Example 642, N4-[2-(4-aminophenyl)ethyl]-6-(3-chloro-2-methyl-phenyl)pyrimidine-2,4-diamine] | < 200
Cc1c(Cl)cccc1-c1cc(NCCNS(=O)(=O)c2cccc(F)c2)nc(N)n1 [Example 660, N-[2-[[2-amino-6-(3-chloro-2-methyl-phenyl)pyrimidin-4-yl]amino]ethyl]-3-fluoro-benzenesulfonamide] | < 200
Cc1c(Cl)cccc1-c1cc(NCCNC(=O)Nc2cccc(F)c2)nc(N)n1 [Example 663, 1-[2-[[2-amino-6-(3-chloro-2-methyl-phenyl)pyrimidin-4-yl]amino]ethyl]-3-(3-fluorophenyl)urea] | < 200
Cc1c(Cl)cccc1-c1cc(NC2CN(c3ccc(S(N)(=O)=O)cc3)C2)nc(N)n1 [Example 667] | 2000 to 10000
Cc1c(Cl)cccc1-c1cc(NCCCNC(=O)OC(C)(C)C)nc(N)n1 [Example 668, tert-butyl N-[3-[[2-amino-6-(3-chloro-2-methyl-phenyl)pyrimidin-4-yl]amino]propyl]carbamate] | < 200
Cc1c(Cl)cccc1-c1cc(NCCCCc2ccccc2)nc(N)n1 [Example 680, 6-(3-chloro-2-methyl-phenyl)-N4-(4-phenylbutyl)pyrimidine-2,4-diamine] | < 200
Cc1c(Cl)cccc1-c1cc(NCCC2=CCCCC2)nc(N)n1 [Example 681, 6-(3-chloro-2-methyl-phenyl)-N4-[2-(cyclohexen-1-yl)ethyl]pyrimidine-2,4-diamine] | < 200

Compound | IC50 [nM]
C=CCCNc1cc(-c2cccc(Cl)c2C)nc(N)n1 [Example 682, N4-but-3-enyl-6-(3-chloro-2-methyl-phenyl)pyrimidine-2,4-diamine] | < 200
Cc1c(Cl)cccc1-c1cc(NCCNc2cccc3c(S(=O)(=O)O)cccc23)nc(N)n1 [Example 683, 5-[2-[[2-amino-6-(3-chloro-2-methyl-phenyl)pyrimidin-4-yl]amino]ethylamino]naphthalene-1-sulfonic acid] | < 200
Cc1c(Cl)cccc1-c1cc(NCCOCC2CC2)nc(N)n1 [Example 684, 6-(3-chloro-2-methyl-phenyl)-N4-[2-(cyclopropylmethoxy)ethyl]pyrimidine-2,4-diamine] | < 200
Cc1c(Cl)cccc1-c1cc(NCC=C(F)F)nc(N)n1 [Example 686, 6-(3-chloro-2-methyl-phenyl)-N4-(3,3-difluoroallyl)pyrimidine-2,4-diamine] | < 200
Cc1c(Cl)cccc1-c1cc(NCCC(F)(F)Br)nc(N)n1 [Example 687, N4-(3-bromo-3,3-difluoro-propyl)-6-(3-chloro-2-methyl-phenyl)pyrimidine-2,4-diamine] | < 200
Cc1c(Cl)cccc1-c1cc(NCCSCCc2ccccc2)nc(N)n1 [Example 690, 6-(3-chloro-2-methylphenyl)-N4-{2-[(2-phenylethyl)sulfanyl]ethyl}pyrimidine-2,4-diamine] | < 200
Cc1c(Cl)cccc1-c1cc(NCC[S+]([O-])CCc2ccccc2)nc(N)n1 (stereo not shown) [Example 692, 6-(3-chloro-2-methyl-phenyl)-N4-[2-(2-phenylethylsulfinyl)ethyl]pyrimidine-2,4-diamine] | 2000 to 10000
Cc1cc(CSCCNc2cc(-c3cccc(Cl)c3C)nc(N)n2)no1 [Example 700, 6-(3-chloro-2-methyl-phenyl)-N4-[2-[(5-methylisoxazol-3-yl)methylsulfanyl]ethyl]pyrimidine-2,4-diamine] | < 200
Cc1noc(C)c1CCNc1cc(-c2cccc(Cl)c2C)nc(N)n1 [Example 701, 6-(3-chloro-2-methyl-phenyl)-N4-[2-(3,5-dimethylisoxazol-4-yl)ethyl]pyrimidine-2,4-diamine] | < 200
CCCNc1cc(-c2cccc(Cl)c2C)nc(N)n1 [Example 702, 6-(3-chloro-2-methyl-phenyl)-N4-propyl-pyrimidine-2,4-diamine] | < 200
CCCCNc1cc(-c2cccc(Cl)c2C)nc(N)n1 [Example 703, N4-butyl-6-(3-chloro-2-methyl-phenyl)pyrimidine-2,4-diamine] | < 200
COCCNc1cc(-c2cccc(Cl)c2C)nc(N)n1 [Example 704, 6-(3-chloro-2-methyl-phenyl)-N4-(2-methoxyethyl)pyrimidine-2,4-diamine] | < 200
CCOCCCNc1cc(-c2cccc(Cl)c2C)nc(N)n1 [Example 705, 6-(3-chloro-2-methyl-phenyl)-N4-(3-ethoxypropyl)pyrimidine-2,4-diamine] | < 200
Cc1c(Cl)cccc1-c1cc(NCC2CCOCC2)nc(N)n1 [Example 706, 6-(3-chloro-2-methyl-phenyl)-N4-(tetrahydropyran-4-ylmethyl)pyrimidine-2,4-diamine] | < 200
Cc1c(Cl)cccc1-c1cc(NCC2CCCO2)nc(N)n1 (stereo not shown) [Example 707, 6-(3-chloro-2-methyl-phenyl)-N4-(tetrahydrofuran-2-ylmethyl)pyrimidine-2,4-diamine] | < 200
CC(C)=CCC/C(C)=C/CNc1cc(-c2cccc(Cl)c2C)nc(N)n1 [Example 708, 6-(3-chloro-2-methyl-phenyl)-N4-[(2E)-3,7-dimethylocta-2,6-dienyl]pyrimidine-2,4-diamine] | < 200
Cc1c(Cl)cccc1-c1cc(NCC(C)C)nc(N)n1 [Example 709, 6-(3-chloro-2-methyl-phenyl)-N4-isobutyl-pyrimidine-2,4-diamine] | < 200
Cc1c(Cl)cccc1-c1cc(NCCc2ccccc2)nc(N)n1 [Example 713, 6-(3-chloro-2-methyl-phenyl)-N4-(2-phenylethyl)pyrimidine-2,4-diamine] | < 200
Cc1c(Cl)cccc1-c1cc(NCCc2ccncc2)nc(N)n1 [Example 714, 6-(3-chloro-2-methyl-phenyl)-N4-[2-(4-pyridyl)ethyl]pyrimidine-2,4-diamine] | < 200
Cc1c(Cl)cccc1-c1cc(NCCc2ccccn2)nc(N)n1 [Example 715, 6-(3-chloro-2-methyl-phenyl)-N4-[2-(2-pyridyl)ethyl]pyrimidine-2,4-diamine] | < 200
Cc1c(Cl)cccc1-c1cc(NC/C(=C\F)CCc2ccc(F)cc2)nc(N)n1 [Example 721, 6-(3-chloro-2-methyl-phenyl)-N4-[(2Z)-2-(fluoromethylene)-4-(4-fluorophenyl)butyl]pyrimidine-2,4-diamine] | < 200
